Columns and labels:
A2780 cells = test: Viability assay in A2780 (Cell Titer Glo); type: cell-based, human; conditions: Homo sapiens; A2780 cells; read-out: A2780 Cell prolif. EC50
Description: Cell viability was assessed with Cell Titer Glo assay, Promega. Cells were seeded in TC treated 96-well plates at a density of 1,000 (A2780 cells) per well in DMEM with 10% FBS, 1% Sodium Pyruvate, and 1% Penicillin Streptomycin for a minimum of 2 hrs prior to addition of compound. Test compounds were serially diluted (3 fold) in DMSO to 500× the final concentration. For each concentration of test compound, 2 μL (500×) aliquots of compound or 100% DMSO (control) were diluted in 500 μL of culture medium to 2× final concentration then diluted 1× on the cells. Cells were incubated for 72 hrs at 37° C., 5% CO2. After which Cell Titer Glo is added to determine viable cells, the assay was performed according to the manufacturer's instruction (Promega Corporation, Madison, Wis. USA). Each experimental condition was performed in duplicate. Raw data was imported in Abase and EC50s calculated with XL-fit data analysis software and are shown in Tables 1 and 2 in the column labeled “A2780 Cell prolif. EC50”.

PI3 K Alpha = PI3 K Alpha (Homo sapiens, UniProt P42336); test: PI3 kinase phosphorylation assays (homogenous solution phase, one step solid phase, ATP depletion/KinaseGlo); type: biochemical; conditions: read-out: PI3K Alpha IC50
Sequence of PI3 K Alpha (P42336 whole entry): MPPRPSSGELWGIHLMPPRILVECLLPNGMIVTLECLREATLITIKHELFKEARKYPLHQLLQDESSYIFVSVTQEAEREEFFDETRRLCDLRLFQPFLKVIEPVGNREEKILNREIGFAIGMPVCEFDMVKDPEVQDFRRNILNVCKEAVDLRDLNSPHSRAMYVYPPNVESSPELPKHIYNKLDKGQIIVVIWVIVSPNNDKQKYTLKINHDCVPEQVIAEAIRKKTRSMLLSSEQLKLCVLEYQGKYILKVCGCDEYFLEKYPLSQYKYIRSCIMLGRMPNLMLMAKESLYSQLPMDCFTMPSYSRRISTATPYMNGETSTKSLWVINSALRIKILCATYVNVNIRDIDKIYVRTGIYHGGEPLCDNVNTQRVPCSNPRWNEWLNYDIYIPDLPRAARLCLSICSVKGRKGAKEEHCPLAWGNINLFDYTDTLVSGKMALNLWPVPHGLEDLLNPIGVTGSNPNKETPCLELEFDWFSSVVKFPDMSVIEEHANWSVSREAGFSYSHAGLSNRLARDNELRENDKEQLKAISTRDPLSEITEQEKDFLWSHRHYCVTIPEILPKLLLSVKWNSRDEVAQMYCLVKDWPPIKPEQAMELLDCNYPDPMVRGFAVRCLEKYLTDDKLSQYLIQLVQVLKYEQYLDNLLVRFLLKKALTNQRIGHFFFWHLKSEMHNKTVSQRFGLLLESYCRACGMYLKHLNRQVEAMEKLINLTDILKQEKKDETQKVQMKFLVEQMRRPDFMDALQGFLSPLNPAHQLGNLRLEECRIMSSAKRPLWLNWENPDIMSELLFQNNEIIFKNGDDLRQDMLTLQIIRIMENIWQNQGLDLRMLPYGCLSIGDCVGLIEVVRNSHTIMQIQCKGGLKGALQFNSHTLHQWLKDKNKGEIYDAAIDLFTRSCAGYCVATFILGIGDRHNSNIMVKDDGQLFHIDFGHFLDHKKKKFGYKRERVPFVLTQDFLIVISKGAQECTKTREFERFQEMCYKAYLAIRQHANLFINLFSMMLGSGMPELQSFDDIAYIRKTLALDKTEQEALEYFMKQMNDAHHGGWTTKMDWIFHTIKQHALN
Sequence of PI3 K Alpha (P27986 whole entry partner): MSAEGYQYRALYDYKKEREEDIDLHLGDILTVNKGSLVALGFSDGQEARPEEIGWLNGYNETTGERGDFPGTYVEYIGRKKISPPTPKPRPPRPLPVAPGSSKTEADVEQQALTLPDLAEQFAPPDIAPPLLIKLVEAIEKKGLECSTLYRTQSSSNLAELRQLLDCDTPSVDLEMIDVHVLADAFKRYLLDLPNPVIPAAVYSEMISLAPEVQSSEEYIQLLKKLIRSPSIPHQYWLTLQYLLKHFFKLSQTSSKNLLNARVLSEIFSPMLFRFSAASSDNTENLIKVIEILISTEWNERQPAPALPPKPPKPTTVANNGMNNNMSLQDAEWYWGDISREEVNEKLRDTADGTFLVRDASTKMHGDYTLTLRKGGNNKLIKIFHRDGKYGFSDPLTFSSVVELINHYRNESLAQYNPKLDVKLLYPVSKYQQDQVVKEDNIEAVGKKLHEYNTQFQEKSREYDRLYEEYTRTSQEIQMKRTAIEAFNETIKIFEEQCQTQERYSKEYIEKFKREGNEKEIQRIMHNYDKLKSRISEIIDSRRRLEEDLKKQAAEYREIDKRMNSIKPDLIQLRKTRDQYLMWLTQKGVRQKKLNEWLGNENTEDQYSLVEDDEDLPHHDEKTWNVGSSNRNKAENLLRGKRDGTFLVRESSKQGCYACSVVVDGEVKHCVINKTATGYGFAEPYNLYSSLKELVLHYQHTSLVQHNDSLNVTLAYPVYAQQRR
Description: Compounds to be tested are dissolved in DMSO and directly distributed into 384-well flashplates at 1.25 μL per well. To start the reaction, 20 μL of 6 nM PI3 kinase are added into each well followed by 20 μL of 400 nM ATP containing a trace of radiolabeled ATP and 900 nM 1-alpha-phosphatidylinositol (PI). The plates are briefly centrifuged to remove any air gap. The reaction is performed for 15 minutes and then stopped by the addition of 20 μL of 100 mM EDTA. The stopped reaction is incubated overnight at RT to allow the lipid substrate to bind by hydrophobic interaction to the surface of the flashplate. The liquid in the wells is then washed away, and the labeled substrate is detected with scintillation counting.
This method is similar to Assay 1 except that the lipid substrate (1-alpha-phosphatidylinositol (PI)) is first dissolved in a coating buffer and incubated on flashplate at room temperature overnight to allow the lipid substrate to bind by hydrophobic interaction to the surface of the flashplate. Unbound substrate is then washed away. On the day of assay, 20 μL of 6 nM PI3 kinase are added into each well followed by 20 μL of 400 nM ATP containing trace of radiolabeled ATP. Compounds are added together with enzyme and ATP to the lipid-coated plates. The plates are briefly centrifuged to remove any air gap. The reaction is performed for two to three hours. The reaction is stopped by addition of 20 μL of 100 mM EDTA or by immediate plate washing. Phosphorylated lipid substrate is detected by scintillation counting.
Compounds to be tested are dissolved in DMSO and directly distributed into a black 384-well plate at 1.25 μL per well. To start the reaction, 25 μL of 10 nM PI3 kinase and 5 μg/mL 1-alpha-phosphatidylinositol (PI) are added into each well followed by 25 μL of 2 μM ATP. The reaction is performed until approx 50% of the ATP is depleted, and then stopped by the addition of 25 μL of KinaseGlo solution. The stopped reaction is incubated for 5 minutes and the remaining ATP is then detected via luminescence.

Row | SMILES | EC50 (A2780 cells) | IC50 (PI3 K Alpha)
1 | Nc1ncc(-c2ccc3nc(NC(=O)C4CNC4)cn3n2)cc1Cl [Example 142, N-(6-(6-amino-5-chloropyridin-3-yl)imidazo[1,2-b]pyridazin-2-yl)azetidine-3-carboxamide] | < 25 µM | < 1 µM
2 | Nc1ncc(-c2ccc3nc(NC(=O)c4ccc(F)nc4)cn3c2)cc1C(F)(F)F [Example 143, N-(6-(6-amino-5-(trifluoromethyl)pyridin-3-yl)imidazo[1,2-a]pyridin-2-yl)-6-fluoronicotinamide] | < 25 µM | < 1 µM
3 | CC(=O)Nc1cn2cc(-c3ccc(N)nc3C)ccc2n1 [Example 144, N-(6-(6-amino-2-methylpyridin-3-yl)imidazo[1,2-a]pyridin-2-yl)acetamide] | < 25 µM | < 1 µM
4 | COc1nc(-c2cc(F)c3nc(NC(C)=O)cn3c2)cnc1N [Example 145, N-(6-(5-amino-6-methoxypyrazin-2-yl)-8-fluoroimidazo [1,2-a]pyridin-2-yl)acetamide] | < 25 µM | < 1 µM
5 | CC(=O)NC1CCN(C(=O)Nc2cn3cc(-c4cnc(N)c(C(F)(F)F)c4)ccc3n2)C1 (stereo not shown) [Example 146, 3-acetamido-N-(6-(6-amino-5-(trifluoromethyl)pyridin-3-yl)imidazo[1,2-a]pyridin-2-yl)pyrrolidine-1-carboxamide] | < 25 µM | < 1 µM
6 | CC(=O)Nc1cn2cc(-c3cnc(N)c(C(=O)NCCO)n3)ccc2n1 [Example 147, 6-(2-acetamido-imidazo[1,2-a]pyridin-6-yl)-3-amino-N-(2-hydroxyethyl) pyrazine-2-carboxamide] | < 25 µM | < 1 µM
7 | NC(=O)N1CC[C@H]1C(=O)Nc1cn2cc(-c3cnc(N)c(C(F)(F)F)c3)ccc2n1 [Example 148, (S)-N2-(6-(6-amino-5-(trifluoromethyl)pyridin-3-yl)imidazo[1,2-a]pyridin-2-yl)azetidine-1,2-dicarboxamide] | < 25 µM | < 1 µM
8 | CC(=O)Nc1cn2cc(-c3cnc(N)c(OC4CNC4)n3)ccc2n1 [Example 149, N-(6-(5-amino-6-(azetidin-3-yloxy)pyrazin-2-yl)imidazo[1,2-a]pyridin-2-yl)acetamide] | < 25 µM | < 1 µM
9 | CO/N=C/c1cc(-c2ccc3nc(NC(C)=O)cn3c2)cnc1N [Example 150, (E)-N-(6-(6-amino-5-((methoxy-imino)methyl)pyridin-3-yl)imidazo[1,2-a]pyridin-2-yl)acetamide] | < 25 µM | < 1 µM
10 | Nc1ncc(-c2ccc3nc(NC(=O)N4CCC(C(=O)O)C4)cn3c2)cc1C(F)(F)F (stereo not shown) [Example 151] | < 25 µM | < 1 µM
11 | CC(=O)Nc1cn2cc(-c3cnc(N)c(C(=O)N4CCN(C(=O)OC(C)(C)C)CC4)c3)ccc2n1 [Example 152, tert-butyl 4-(5-(2-acetamido-imidazo[1,2-a]pyridin-6-yl)-2-aminonicotinoyl) piperazine-1-carboxylate] | < 25 µM | < 1 µM
12 | COCCOc1nc(-c2ccc3nc(NC(=O)C4CCN4)cn3c2)cnc1N (stereo not shown) [Example 153, N-(6-(5-amino-6-(2-methoxyethoxy)pyrazin-2-yl)imidazo[1,2-a]pyridin-2-yl)azetidine-2-carboxamide] | < 25 µM | < 1 µM

Continued, values first:

Row | EC50 (A2780 cells) | IC50 (PI3 K Alpha) | SMILES
13 | < 25 µM | < 10 µM | COc1cc(-c2ccc3nc(NC(C)=O)cn3n2)c(C)nc1N [Example 43, N-(6-(6-amino-5-methoxy-2-methylpyridin-3-yl)imidazo[1,2-b]pyridazin-2-yl)acetamide]
14 | < 25 µM | < 10 µM | CC(C)(C(=O)Nc1cn2cc(-c3cnc(N)c(C(F)(F)F)c3)ccc2n1)c1ccccc1 [Example 44]
15 | < 25 µM | < 10 µM | Nc1ncc(-c2ccc3nc(NC(=O)N4CC[C@H]4C(=O)O)cn3c2)cc1C(F)(F)F [Example 45, (S)-1-(6-(6-amino-5-(trifluoromethyl)pyridin-3-yl)imidazo[1,2-a]pyridin-2-ylcarbamoyl) azetidine-2-carboxylic acid]
16 | < 10 µM | < 10 µM | NC(=O)N1CCC[C@H]1C(=O)Nc1cn2cc(-c3cnc(N)c(C(F)(F)F)c3)ccc2n1 [Example 46, (S)-N2-(6-(6-amino-5-(trifluoromethyl)pyridin-3-yl)imidazo[1,2-a]pyridin-2-yl)pyrrolidine-1,2-dicarboxamide]
17 | < 10 µM | < 1 µM | Nc1ncc(-c2ccc3nc(NC(=O)Cc4ccccn4)cn3c2)cc1C(F)(F)F [Example 52, N-(6-(6-amino-5-(trifluoromethyl)pyridin-3-yl)imidazo[1,2-a]pyridin-2-yl)-2-(pyridin-2-yl)acetamide]
18 | < 1 µM | < 1 µM | Nc1ncc(-c2ccc3nc(NC(=O)CN4CCCCC4)cn3c2)nc1OCC(F)(F)F [Example 109, N-(6-(5-amino-6-(2,2,2-trifluoroethoxy)pyrazin-2-yl)imidazo[1,2-a]pyridin-2-yl)-2-(piperidin-1-yl)acetamide]
19 | < 10 µM | < 1 µM | CC(=O)Nc1cn2c(C)c(-c3cnc(N)c(OCC(F)(F)F)n3)ccc2n1 [Example 112, N-(6-(5-amino-6-(2,2,2-trifluoroethoxy)pyrazin-2-yl)-5-methylimidazo [1,2-a]pyridin-2-yl)acetamide]
20 | < 10 µM | < 1 µM | Nc1ncc(-c2ccc3nc(NC(=O)[C@@H]4CCCN4)cn3n2)cc1C(F)(F)F [Example 129, (S)-N-(6-(6-amino-5-(trifluoromethyl)pyridin-3-yl)imidazo[1,2-b]pyridazin-2-yl)pyrrolidine-2-carboxamide]
21 | < 10 µM | < 1 µM | CC(=O)Nc1cn2cc(-c3cnc(N)c(-c4cccc(F)c4)c3)ccc2n1 [Example 134, N-(6-(6-amino-5-(3-fluorophenyl)pyridin-3-yl)imidazo[1,2-a]pyridin-2-yl)acetamide]
22 | < 25 µM | < 1 µM | NCCCC(=O)Nc1cn2nc(-c3cnc(N)c(C(F)(F)F)c3)ccc2n1 [Example 137, 4-amino-N-(6-(6-amino-5-(trifluoromethyl)pyridin-3-yl)imidazo[1,2-b]pyridazin-2-yl)butanamide]
23 | < 25 µM | < 1 µM | Nc1ncc(-c2ccc3nc(NC(=O)CCCC(=O)O)cn3n2)cc1C(F)(F)F [Example 138, 5-(6-(6-amino-5-(trifluoromethyl)pyridin-3-yl)imidazo[1,2-b]pyridazin-2-ylamino)-5-oxopentanoic acid]
24 | < 25 µM | < 1 µM | CC(=O)Nc1cn2nc(-c3cnc(N)c(C(=O)NCCN)c3)ccc2n1 [Example 139, 5-(2-acetamido-imidazo[1,2-b]pyridazin-6-yl)-2-amino-N-(2-aminoethyl) nicotinamide]
25 | < 25 µM | < 1 µM | CC(=O)Nc1cn2nc(-c3cnc(N)c(C(=O)NCCO)c3)ccc2n1 [Example 140, 5-(2-acetamido-imidazo[1,2-b]pyridazin-6-yl)-2-amino-N-(2-hydroxyethyl) nicotinamide]
26 | < 25 µM | < 1 µM | CC(=O)Nc1cn2nc(-c3cnc(N)c(C(=O)NCCNS(C)(=O)=O)c3)ccc2n1 [Example 141, 5-(2-acetamido-imidazo[1,2-b]pyridazin-6-yl)-2-amino-N-(2-(methylsulfon amido)ethyl) nicotinamide]

Reference: patent publication US20100075965A1, “PI3 KINASE INHIBITORS AND METHODS OF THEIR USE” (Novartis AG, priority 2006, published 2010)
